Source: ChEMBL document CHEMBL1201862, “PubChem BioAssay data set” (2004)
Activity calls are given as the source filed them.

Columns and labels:
[1] = cytotoxicity in HEK-293T cells, dose response, cytotoxicity control for TCR NF-kB inhibitor project, luminescence, T-cell screen hits (AID 489026); assay type: functional, cell-based;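 further: cells exposed to compound about 14 hours before the viability readout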
[2] = biological target: Peroxisome proliferator-activated receptor gamma/Nuclear receptor coactivator 1 (Homo sapiens, UniProt P37231); assay: (§1) TR-FRET dose response biochemical High Throughput Screening assay for agonists of the steroid receptor coactivator 1 (SRC-1) recruitment by the peroxisome proliferator-activated receptor gamma (PPAR gamma): non-selective agonists. [Related pubchem assays (depositor defined):AID1300, AID1808, AID504735, AID631]; assay type: protein assay
Chain of Peroxisome proliferator-activated receptor gamma/Nuclear receptor coactivator 1 (P37231 whole entry): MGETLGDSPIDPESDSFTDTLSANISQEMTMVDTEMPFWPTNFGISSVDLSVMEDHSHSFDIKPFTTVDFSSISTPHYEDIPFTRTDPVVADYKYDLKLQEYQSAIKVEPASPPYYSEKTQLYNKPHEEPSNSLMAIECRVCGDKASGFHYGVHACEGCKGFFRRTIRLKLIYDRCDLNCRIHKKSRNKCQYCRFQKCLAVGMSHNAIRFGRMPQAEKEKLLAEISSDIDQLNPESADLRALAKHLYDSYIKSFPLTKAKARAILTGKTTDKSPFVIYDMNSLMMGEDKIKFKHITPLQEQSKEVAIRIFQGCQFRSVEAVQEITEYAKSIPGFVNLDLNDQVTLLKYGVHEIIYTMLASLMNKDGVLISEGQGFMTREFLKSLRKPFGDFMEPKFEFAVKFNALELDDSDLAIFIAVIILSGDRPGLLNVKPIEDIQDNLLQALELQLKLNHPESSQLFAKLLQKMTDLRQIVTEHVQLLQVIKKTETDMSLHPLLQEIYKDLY
Chain of Peroxisome proliferator-activated receptor gamma/Nuclear receptor coactivator 1 (Q15788 whole entry, further chain): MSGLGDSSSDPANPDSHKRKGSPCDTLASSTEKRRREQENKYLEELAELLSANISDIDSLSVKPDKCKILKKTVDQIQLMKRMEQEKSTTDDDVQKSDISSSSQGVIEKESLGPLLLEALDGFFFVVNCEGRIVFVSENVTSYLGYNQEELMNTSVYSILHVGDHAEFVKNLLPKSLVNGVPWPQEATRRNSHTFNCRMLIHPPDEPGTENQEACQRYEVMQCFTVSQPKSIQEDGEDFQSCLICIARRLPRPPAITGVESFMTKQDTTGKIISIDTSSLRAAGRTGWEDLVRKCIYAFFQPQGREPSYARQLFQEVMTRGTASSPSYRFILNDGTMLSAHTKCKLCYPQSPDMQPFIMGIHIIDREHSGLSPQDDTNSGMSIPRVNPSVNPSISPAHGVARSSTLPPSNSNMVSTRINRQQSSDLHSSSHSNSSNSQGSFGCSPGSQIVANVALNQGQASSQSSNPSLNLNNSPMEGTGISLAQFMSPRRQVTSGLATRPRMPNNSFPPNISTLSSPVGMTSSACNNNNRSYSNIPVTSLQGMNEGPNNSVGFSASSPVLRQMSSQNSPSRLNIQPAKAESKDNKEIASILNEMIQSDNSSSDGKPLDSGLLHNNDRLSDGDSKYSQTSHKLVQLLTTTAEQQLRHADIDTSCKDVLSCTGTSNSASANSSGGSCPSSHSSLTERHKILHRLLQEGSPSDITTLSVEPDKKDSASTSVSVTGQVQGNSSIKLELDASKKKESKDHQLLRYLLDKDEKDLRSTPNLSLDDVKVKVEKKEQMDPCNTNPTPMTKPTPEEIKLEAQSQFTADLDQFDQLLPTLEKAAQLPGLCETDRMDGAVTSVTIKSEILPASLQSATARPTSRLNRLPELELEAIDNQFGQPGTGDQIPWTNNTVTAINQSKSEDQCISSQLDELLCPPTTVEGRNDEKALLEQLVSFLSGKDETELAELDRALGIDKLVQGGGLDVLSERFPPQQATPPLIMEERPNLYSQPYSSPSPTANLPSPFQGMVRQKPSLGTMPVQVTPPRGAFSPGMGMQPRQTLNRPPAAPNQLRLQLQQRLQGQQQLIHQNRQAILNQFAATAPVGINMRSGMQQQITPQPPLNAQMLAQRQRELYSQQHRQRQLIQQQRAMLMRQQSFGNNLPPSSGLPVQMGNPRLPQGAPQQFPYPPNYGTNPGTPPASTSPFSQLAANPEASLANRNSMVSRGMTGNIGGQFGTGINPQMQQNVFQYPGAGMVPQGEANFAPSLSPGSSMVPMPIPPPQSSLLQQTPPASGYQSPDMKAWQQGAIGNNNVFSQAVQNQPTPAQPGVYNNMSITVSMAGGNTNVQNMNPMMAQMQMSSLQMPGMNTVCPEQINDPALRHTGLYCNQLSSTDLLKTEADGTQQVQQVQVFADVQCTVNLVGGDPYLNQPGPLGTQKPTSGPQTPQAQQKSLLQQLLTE

[3] = biological target: Peroxisome proliferator-activated receptor gamma/Nuclear receptor coactivator 3 (Homo sapiens, UniProt P37231); assay: as §1, with “3 (SRC-3)” for “1 (SRC-1)”, “assays: 1301 (Confirmation screen.), 1048 (Primary screen.)]” for “assays (depositor defined):AID1300, AID1808, AID504735, AID631]”; assay type: functional
[4] = biological target: Peroxisome proliferator-activated receptor gamma/Nuclear receptor coactivator 2 (Homo sapiens, UniProt P37231); assay: TR-FRET dose response biochemical High Throughput Screening assay for agonists of the steroid receptor coactivator 2 (SRC-2) recruitment by the peroxisome proliferator-activated receptor gamma (PPAR gamma): non-selective agonists. [Related pubchem assays: 1297, 1032 ]; assay type: functional
Chain of Peroxisome proliferator-activated receptor gamma/Nuclear receptor coactivator 2 (P37231 whole entry): as the sequence (P37231 whole entry) above
Chain of Peroxisome proliferator-activated receptor gamma/Nuclear receptor coactivator 2 (Q15596 whole entry, further chain): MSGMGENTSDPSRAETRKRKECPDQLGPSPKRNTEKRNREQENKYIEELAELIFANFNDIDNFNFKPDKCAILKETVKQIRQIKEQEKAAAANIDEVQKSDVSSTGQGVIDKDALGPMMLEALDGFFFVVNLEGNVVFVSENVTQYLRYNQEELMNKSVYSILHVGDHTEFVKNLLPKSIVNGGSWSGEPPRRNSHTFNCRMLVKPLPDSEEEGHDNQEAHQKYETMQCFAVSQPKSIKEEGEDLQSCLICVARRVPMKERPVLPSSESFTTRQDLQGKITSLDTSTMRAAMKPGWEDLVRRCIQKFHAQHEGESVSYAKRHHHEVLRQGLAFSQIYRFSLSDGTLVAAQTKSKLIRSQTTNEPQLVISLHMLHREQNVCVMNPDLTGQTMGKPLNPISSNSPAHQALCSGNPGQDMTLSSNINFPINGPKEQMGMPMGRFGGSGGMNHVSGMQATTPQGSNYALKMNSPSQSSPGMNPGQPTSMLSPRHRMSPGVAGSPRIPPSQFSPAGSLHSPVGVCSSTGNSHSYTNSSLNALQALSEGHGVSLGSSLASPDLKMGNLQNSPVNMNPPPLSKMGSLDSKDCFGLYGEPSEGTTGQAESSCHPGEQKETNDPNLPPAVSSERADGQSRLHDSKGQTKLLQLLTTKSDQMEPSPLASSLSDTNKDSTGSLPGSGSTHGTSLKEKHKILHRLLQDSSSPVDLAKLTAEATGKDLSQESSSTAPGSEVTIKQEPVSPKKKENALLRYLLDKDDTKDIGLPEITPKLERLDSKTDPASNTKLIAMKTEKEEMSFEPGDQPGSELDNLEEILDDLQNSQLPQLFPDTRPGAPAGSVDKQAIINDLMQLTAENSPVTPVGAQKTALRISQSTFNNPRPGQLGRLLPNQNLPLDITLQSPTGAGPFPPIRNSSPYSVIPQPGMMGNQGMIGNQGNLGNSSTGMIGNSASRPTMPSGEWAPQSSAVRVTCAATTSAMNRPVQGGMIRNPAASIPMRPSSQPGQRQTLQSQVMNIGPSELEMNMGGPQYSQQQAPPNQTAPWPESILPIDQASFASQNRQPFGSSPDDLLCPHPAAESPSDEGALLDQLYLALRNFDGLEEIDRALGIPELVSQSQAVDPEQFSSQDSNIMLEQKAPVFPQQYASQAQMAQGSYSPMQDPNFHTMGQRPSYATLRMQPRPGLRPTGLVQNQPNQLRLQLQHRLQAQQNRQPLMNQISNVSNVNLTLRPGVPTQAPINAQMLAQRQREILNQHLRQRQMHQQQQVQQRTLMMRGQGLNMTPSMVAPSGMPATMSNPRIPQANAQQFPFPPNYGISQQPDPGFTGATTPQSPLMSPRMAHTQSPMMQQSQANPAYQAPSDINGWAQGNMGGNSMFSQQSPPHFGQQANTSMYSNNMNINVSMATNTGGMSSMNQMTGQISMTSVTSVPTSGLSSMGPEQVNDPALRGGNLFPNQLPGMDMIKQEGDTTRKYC

[5] = NIH-3T3 fibroblast cytotoxicity, dose response, cytotoxicity control, cell-based, fluorescence, Alamar Blue, secondary assay (AID 2327); assay type: functional;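 further: NIH-3T3 mouse fibroblasts cultured with fluconazole at 8 µg/mL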
[6] = C. albicans growth with fluconazole, confirmation, fluorescence, retest (AID 2467); assay type: functional, cell-based
[7] = inhibitors of firefly luciferase expression or activity, dose response, H4 neuroglioma cells, luminescence (AID 1990); assay type: functional, cell-based
BJ [8] = assay: cytotoxicity toward BJ-TERT fibroblasts, dose response, cell-based, RAS-independent, luminescence (AID 1933); assay type: functional; settings: Homo sapiens
[9] = Luminescence Cell-Based Dose Response HTS to Identify Inhibitors of 5'UTR Stem-Loop Driven Prion Protein mRNA Translation in H4 Neuroglioblastoma Cells. [Related pubchem assays: 1827 (Project Summary), 1813 (Primary HTS)]; assay type: functional
[10] = inhibitors of SNCA 5'UTR-driven reporter translation, confirmation, H4 neuroglioma cells, luminescence (AID 1988); assay type: functional, cell-based
BJ [11] = assay: cells; assay type: functional, cell-based; settings: Homo sapiens
BJ [12] = assay: cytotoxicity toward BJ-TERT-LT-ST fibroblasts, dose response, cell-based, RAS-independent, luminescence (AID 1935); assay type: functional; settings: Homo sapiens;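 further: BJ fibroblasts immortalized with TERT plus LT and ST oncogenes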
[13] = cytotoxicity toward DRD oncogenic fibroblasts, dose response, cell-based, non-viral oncogenic, luminescence (AID 1934); assay type: functional; settings: Homo sapiens
[14] = biological target: T1, Short transient receptor potential channel 4 (Mus musculus, UniProt Q9QUQ5); assay: mouse TRPC4 channel inhibitors, dose response, cell-based, HEK293 TRPC4/mu-opioid, Fluo-4 calcium (AID 434942); assay type: functional;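 further: potency of inhibitors blocking the TRPC4 calcium response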
T1 sequence (Q9QUQ5 whole entry): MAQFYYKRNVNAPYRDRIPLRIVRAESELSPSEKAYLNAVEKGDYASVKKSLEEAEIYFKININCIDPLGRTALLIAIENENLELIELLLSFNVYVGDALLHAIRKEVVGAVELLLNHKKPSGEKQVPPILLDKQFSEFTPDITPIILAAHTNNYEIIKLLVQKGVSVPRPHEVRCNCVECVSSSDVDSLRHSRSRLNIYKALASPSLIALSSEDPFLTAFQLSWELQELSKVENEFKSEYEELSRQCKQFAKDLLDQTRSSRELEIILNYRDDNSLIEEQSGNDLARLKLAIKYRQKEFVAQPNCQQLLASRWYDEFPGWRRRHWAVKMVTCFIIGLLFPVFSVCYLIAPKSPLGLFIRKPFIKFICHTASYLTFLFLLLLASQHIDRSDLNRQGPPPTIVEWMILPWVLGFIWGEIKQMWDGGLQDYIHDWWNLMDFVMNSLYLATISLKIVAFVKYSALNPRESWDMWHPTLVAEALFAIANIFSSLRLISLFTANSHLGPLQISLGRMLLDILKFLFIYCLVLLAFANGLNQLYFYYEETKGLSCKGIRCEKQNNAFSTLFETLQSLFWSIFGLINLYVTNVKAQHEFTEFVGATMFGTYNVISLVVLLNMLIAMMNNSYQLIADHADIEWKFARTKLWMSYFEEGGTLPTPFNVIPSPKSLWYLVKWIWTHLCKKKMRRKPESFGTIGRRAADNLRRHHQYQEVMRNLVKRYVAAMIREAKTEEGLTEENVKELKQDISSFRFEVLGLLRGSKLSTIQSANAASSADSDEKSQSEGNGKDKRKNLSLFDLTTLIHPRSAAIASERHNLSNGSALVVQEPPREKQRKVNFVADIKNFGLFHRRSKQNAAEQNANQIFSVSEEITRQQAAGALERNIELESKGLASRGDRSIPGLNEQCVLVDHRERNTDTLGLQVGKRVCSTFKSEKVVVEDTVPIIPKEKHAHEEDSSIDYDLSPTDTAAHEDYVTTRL

[15] = biological target: T1, Short transient receptor potential channel 4; assay: mouse TRPC4 channel activators, dose response, cell-based, HEK293 TRPC4/mu-opioid, Fluo-4 calcium (AID 434937); assay type: functional

In the case of Cc1cc(-c2ccc(C(C)C)c(S(=O)(=O)N3CCN(c4ccccc4)CC3)c2)on1, the IC50 [1] was > 80 µM (inactive).
With COc1cc(-n2c(=S)[nH]c3ccc(C)cc3c2=O)c(Cl)cc1Cl the EC50 [2] was > 79.4 µM (inactive), the EC50 [3] was > 79.4 µM (not active) and the EC50 [4] was > 79.4 µM (not active).
With Cn1c(=S)[nH]c2scc(-c3cccs3)c2c1=O the EC50 [5] was 145 µM (inconclusive), the EC50 [2] was 10.5 µM (inactive) and the EC50 [3] was > 79.4 µM (not active). For the same compound, the EC50 [6] was 0.361 µM (active) and the EC50 [4] was 11.4 µM (not active).
For COc1ccc(OC)c(Nc2cc(C)nc3ccc(C)cc23)c1, the EC50 [7] was > 120 µM (not active), the EC50 (BJ [8]) was 11.7 µM (active) and the EC50 [9] was 44.2 µM (active). The EC50 [10] was 6.31 µM (active), the EC50 (BJ [11]) was 12.3 µM (active) and the EC50 (BJ [12]) was 18.8 µM (active). The EC50 [13] was 9.69 µM (active) and the EC50 [14] was 5.96 µM (active).
With COc1ccc2nc(NS(=O)(=O)c3ccc(NC(C)=O)cc3)sc2c1 the EC50 [14] was 3.35 µM (active) and the EC50 [15] was 3.76 µM (active).
In the case of CCCc1cc(O)nc(SCC(=O)Nc2sc3c(c2C#N)CCCC3)n1, the EC50 [14] was 4.73 µM (active).
With Cc1cc(NCc2ccccc2)nc(N2CCOCC2)n1 the EC50 [14] was 4.73 µM (active).
In the case of CCOC(=O)C(C)Sc1nc2c(c(=O)[nH]c(=O)n2C)n1Cc1ccc(Cl)cc1 (stereo not given), the EC50 [14] was 0.749 µM (active).
In the case of C=CCSC1=Nc2cc(OC)c(OC)cc2C2=NC(=O)CN12, the EC50 [2] was > 79.4 µM (inactive), the EC50 [3] was > 79.4 µM (not active) and the EC50 [4] was > 79.4 µM (not active).
